Drawing on patent publication US11312727B1, “Macrocyclic flu endonuclease inhibitors” (Janssen BioPharma, Inc., priority 2018, dated 2022), this text covers EC50 and CC50 for 21 compounds.

Where only a bound is given, the exact number is not on record here.

Data set [1] has as its system Influenza strain A549 A/WSN/33 (H1N1). The experiment in a line: microbe, parasite or virus in culture. Format: cell-based. Particulars: Influenza A virus, A549, 20 h, A549 cells, influenza A/WSN/33 (H1N1), 20 hours incubation; read-out: A549_A(H1N1) EC50.
A further data set in a line: in vitro. Conditions: human, CC50, uninfected A549 cells, CellTiter-Glo.

One may read the EC50 as the concentration at which the effect is half-maximal. The term CC50 denotes the concentration that lowers cell viability or growth by half. Lower therefore signals greater toxicity to the cells. Consider `O=C1c2c(O)c(=O)ccn2N2CN1CC/C=C/COc1cc(F)ccc1[C@@H]2c1ccccc1` (single isomer, unassigned) [Compound 77A, (7E,19*R)-3-fluoro-13-hydroxy-19-phenyl-9,10-dihydro-6H,19H-11,18-methanopyrido[2,1-i][1,7,10,11]benzoxatriazacyclotetradecine-12,14-dione], for which, in data set [1], the EC50 was determined as 5280 nM. In “in vitro”, this compound showed a cytotoxic concentration (CC50) of 33200 nM.
As for `O=C1c2c(O)c(=O)ccn2N2CN1C/C=C/CCc1ccccc1[C@H]2c1cccc(F)n1` (single isomer, unassigned) [Compound 78B, (16*S,E)-16-(6-fluoropyridin-2-yl)-4-hydroxy-7,10,11,16-tetrahydro-6,17-methanobenzo[k]pyrido[1,2-b][1,2,5]triazacyclotridecine-3,5-dione], the EC50 in data set [1] is 6430 nM. The compound further showed a CC50 in “in vitro” of 61600 nM.
With `O=C1c2c(O)c(=O)ccn2N2CN1C[C@H]1C[C@@H]1COc1ccccc1[C@@H]2c1ccccc1` (single isomer, unassigned) [Compound 80AA, (1a*S,8*S,17a*S)-14-hydroxy-8-phenyl-1a,2,17,17a-tetrahydro-1H,8H-9,16-methanobenzo[b]cyclopropa[k]pyrido[1,2-f][1]oxa[5,6,9]triazacyclotridecine-13,15-dione], the EC50 in data set [1] amounted to 167 nM. This compound also displayed a CC50 in the data set “in vitro” greater than 1000 nM.
Consider `O=C1c2c(O)c(=O)ccn2N2CN1C[C@@H]1C[C@H]1COc1ccccc1[C@@H]2c1ccccc1` (single isomer, unassigned) [Compound 80AB, (1a*R,8*S,17a*R)-14-hydroxy-8-phenyl-1a,2,17,17a-tetrahydro-1H,8H-9,16-methanobenzo[b]cyclopropa[k]pyrido[1,2-f][1]oxa[5,6,9]triazacyclotridecine-13,15-dione], for which the EC50 in data set [1] stood at 66 nM. The same compound displayed a CC50 in the data set “in vitro” greater than 10000 nM.
For `O=C1c2c(O)c(=O)ccn2N2CN1C[C@H]1C[C@@H]1COc1ccccc1[C@H]2c1ccccc1` (single isomer, unassigned) [Compound 80BA, (1a*S,8*R,17a*S)-14-hydroxy-8-phenyl-1a,2,17,17a-tetrahydro-1H,8H-9,16-methanobenzo[b]cyclopropa[k]pyrido[1,2-f][1]oxa[5,6,9]triazacyclotridecine-13,15-dione] the same measures were greater than 500 nM and greater than 1000 nM.
For `O=C1c2c(O)c(=O)ccn2N2CN1C[C@@H]1C[C@H]1COc1ccccc1[C@H]2c1ccccc1` (single isomer, unassigned) [Compound 80BB, (1a*R,8*R,17a*R)-14-hydroxy-8-phenyl-1a,2,17,17a-tetrahydro-1H,8H-9,16-methanobenzo[b]cyclopropa[k]pyrido[1,2-f][1]oxa[5,6,9]triazacyclotridecine-13,15-dione] the same measures were greater than 500 nM and greater than 1000 nM.
For `O=C1c2c(O)c(=O)ccn2N2CN1CCOC/C=C\c1cccc3c1[C@H]2c1ccccc1CC3` (single isomer, unassigned) [Compound 83A, (13Z,23b*R)-6-hydroxy-9,10,12,18,19,23b-hexahydro-1,8-methanobenzo[4,5]cyclohepta[1,2,3-qr]pyrido[1,2-c][9,2,3,6]benzoxatriazacyclotetradecine-5,7-dione] the same measures were greater than 500 nM and greater than 1000 nM.
Turning to `O=C1c2c(O)c(=O)ccn2N2CN1CCOC/C=C\c1cccc3c1[C@@H]2c1ccccc1CC3` (single isomer, unassigned) [Compound 83B, (13Z,23b*S)-6-hydroxy-9,10,12,18,19,23b-hexahydro-1,8-methanobenzo[4,5]cyclohepta[1,2,3-qr]pyrido[1,2-c][9,2,3,6]benzoxatriazacyclotetradecine-5,7-dione], in data set [1], the EC50 amounted to 6 nM. This compound yielded a CC50 in “in vitro” greater than 200 nM.
For `O=C1c2c(O)c(=O)ccn2N2CN1CCC=CCOc1c(F)cccc1[C@@H]2c1ccccc1` (single isomer, unassigned) [Compound 84B, (19*S, E/Z)-4-fluoro-13-hydroxy-19-phenyl-9,10-dihydro-6H,19H-11,18-methanopyrido[2,1-i][1,7,10,11]benzoxatriazacyclotetradecine-12,14-dione] the same measures were 5 nM and greater than 200 nM.
In the same order, the values of `CC[C@H]1/C=C/COc2c(F)cccc2[C@@H](c2ccccc2)N2CN1C(=O)c1c(O)c(=O)ccn12` (single isomer, unassigned) [Compound 85AA, (9*S,18*R,E)-9-ethyl-4-fluoro-12-hydroxy-18-phenyl-6,9-dihydro-18H-10,17-methanobenzo[b]pyrido[1,2-f][1]oxa[5,6,9]triazacyclotridecine-11,13-dione] are 3 nM and greater than 200 nM.
For `CC[C@@H]1/C=C/COc2c(F)cccc2[C@@H](c2ccccc2)N2CN1C(=O)c1c(O)c(=O)ccn12` (single isomer, unassigned) [Compound 85AB, (9*R,18*R,E)-9-ethyl-4-fluoro-12-hydroxy-18-phenyl-6,9-dihydro-18H-10,17-methanobenzo[b]pyrido[1,2-f][1]oxa[5,6,9]triazacyclotridecine-11,13-dione], the EC50 in data set [1] is 2 nM. The compound also showed a CC50 in the data set “in vitro” greater than 200 nM.
Turning to `CC[C@H]1/C=C/COc2c(F)cccc2[C@H](c2ccccc2)N2CN1C(=O)c1c(O)c(=O)ccn12` (single isomer, unassigned) [Compound 85BA, (9*S,18*S,E)-9-ethyl-4-fluoro-12-hydroxy-18-phenyl-6,9-dihydro-18H-10,17-methanobenzo[b]pyrido[1,2-f][1]oxa[5,6,9]triazacyclotridecine-11,13-dione], the EC50 in data set [1] was greater than 500 nM. The same compound registered a CC50 in the data set “in vitro” greater than 1000 nM.
Take `O=C1c2c(O)c(=O)ccn2N2CN1CCCC/C=C\c1cccc3c1[C@@H]2c1ccccc1CC3` (single isomer, unassigned) [Compound 86B, (13*Z,23b*R)-6-hydroxy-10,11,12,18,19,23b-hexahydro-9H-1,8-methanobenzo[4,5]cyclohepta[1,2,3-qr]pyrido[1,2-c][2,3,6]benzotriazacyclotetradecine-5,7-dione]: the 50% effective concentration (EC50) in data set [1] is 27 nM. The compound also registered a cytotoxic concentration (CC50) in “in vitro” greater than 2000 nM.
In the same order, the values of `O=C1c2c(O)c(=O)ccn2N2CN1CC/C=C\COc1cc(F)c(F)c3c1[C@@H]2c1ccccc1SC3` (single isomer, unassigned) [Compound 88A, (23b*R, Z)-16,17-difluoro-6-hydroxy-10,13,18,23b-tetrahydro-9H-1,8-methano[1]benzothiepino[5,4,3-lm]pyrido[2,1-i][1,7,10,11]benzoxatriazacyclotetradecine-5,7-dione] are greater than 500 nM and greater than 1000 nM.
With `O=C1c2c(O)c(=O)ccn2N2CN1CC/C=C\COc1cc(F)c(F)c3c1[C@H]2c1ccccc1SC3` (single isomer, unassigned) [Compound 88B, (23b*S, Z)-16,17-difluoro-6-hydroxy-10,13,18,23b-tetrahydro-9H-1,8-methano[1]benzothiepino[5,4,3-1m]pyrido[2,1-i][1,7,10,11]benzoxatriazacyclotetradecine-5,7-dione], the EC50 in data set [1] was determined as 1 nM. The half-maximal cytotoxic concentration (CC50) in the data set “in vitro” is greater than 200 nM.
In the same order, the values of `O=C1c2c(O)c(=O)ccn2N2CN1CC/C=C/COc1cc(F)c(F)c3c1[C@@H]2c1ccccc1SC3` (single isomer, unassigned) [Compound 88C, (23b*R, E)-16,17-difluoro-6-hydroxy-10,13,18,23b-tetrahydro-9H-1,8-methano[1]benzothiepino[5,4,3-lm]pyrido[2,1-i][1,7,10,11]benzoxatriazacyclotetradecine-5,7-dione] are greater than 500 nM and greater than 1000 nM.
As to `O=C1c2c(O)c(=O)ccn2N2CN1CC/C=C/COc1cc(F)c(F)c3c1[C@H]2c1ccccc1SC3` (single isomer, unassigned) [Compound 88D, (23b*S, E)-16,17-difluoro-6-hydroxy-10,13,18,23b-tetrahydro-9H-1,8-methano[1]benzothiepino[5,4,3-lm]pyrido[2,1-i][1,7,10,11]benzoxatriazacyclotetradecine-5,7-dione], the EC50 in data set [1] is 1 nM. In addition, the CC50 in the data set “in vitro” was greater than 100 nM.
For `CC[C@H]1/C=C/COc2cc(F)ccc2[C@@H](c2ccccc2)N2CN1C(=O)c1c(O)c(=O)ccn12` (single isomer, unassigned) [Compound 89AA, (9*S,18*R,E)-9-ethyl-3-fluoro-12-hydroxy-18-phenyl-6,9-dihydro-18H-10,17-methanobenzo[b]pyrido[1,2-f][1]oxa[5,6,9]triazacyclotridecine-11,13-dione] the same measures were 10800 nM and 39300 nM.
On to `CC[C@@H]1/C=C/COc2cc(F)ccc2[C@H](c2ccccc2)N2CN1C(=O)c1c(O)c(=O)ccn12` (single isomer, unassigned) [Compound 89BB, (9*R,18*S,E)-9-ethyl-3-fluoro-12-hydroxy-18-phenyl-6,9-dihydro-18H-10,17-methanobenzo[b]pyrido[1,2-f][1]oxa[5,6,9]triazacyclotridecine-11,13-dione], for which the EC50 in data set [1] is 3 nM. This compound registered a CC50 in the data set “in vitro” greater than 200 nM.
In the case of `C[C@@H]1N2C/C=C/COc3c(F)cccc3[C@@H](c3ccccc3)N1n1ccc(=O)c(O)c1C2=O` (single isomer, unassigned) [Compound 91A, (18*R,19*R,E)-4-fluoro-12-hydroxy-19-methyl-18-phenyl-6,9-dihydro-18H-10,17-methanobenzo[b]pyrido[1,2-f][1]oxa[5,6,9]triazacyclotridecine-11,13-dione], the EC50 in data set [1] was found to be 3 nM. For the same compound, the CC50 in “in vitro” is greater than 1000 nM.
In the same order, the values of `C[C@H]1N2C/C=C/COc3c(F)cccc3[C@H](c3ccccc3)N1n1ccc(=O)c(O)c1C2=O` (single isomer, unassigned) [Compound 91B, (18*S,19*S,E)-4-fluoro-12-hydroxy-19-methyl-18-phenyl-6,9-dihydro-18H-10,17-methanobenzo[b]pyrido[1,2-f][1]oxa[5,6,9]triazacyclotridecine-11,13-dione] are greater than 500 nM and greater than 1000 nM.
